Reference: patent US7374905B2, “Medium composition, method and device for selectively enhancing the isolation of anaerobic microorganisms contained in a mixed sample with facultative microorganisms” (Oxyrase, Inc., priority 2000, dated 2008)

Assays:
[1] = tested on: P. levii mixed with E. coli and P. mirabilis; assay type: cell-based
Fusobacterium nucleatum = details: 48 hours, cultures of Table 4
[2] = tested on: Peptostreptococcus anaerobius; details: 48 hours, cultures of Table 4
[3] = tested on: F. nucleatum mixed with E. coli and P. mirabilis; assay type: cell-based
[4] = tested on: P. anaerobius mixed with E. coli and P. mirabilis; assay type: cell-based
[5] = tested on: C. perfringens mixed with E. coli and P. mirabilis; assay type: cell-based
[6] = tested on: B. fragilis mixed with E. coli and P. mirabilis; assay type: cell-based

[N-]=[N+]=[N-] [Azide, sodium azide]
Lowest concentration of azide in the tube that successfully separated the anaerobe [1]: 0.1 mg/mL | Level of growth (below visible turbidity) (Fusobacterium nucleatum): less than 10^7 CFU/ml | Level of growth (below visible turbidity) [2]: less than 10^7 CFU/ml | Lowest concentration of azide in the tube that successfully separated the anaerobe [3]: 0.1 mg/mL | Concentration of azide at which swarming is inhibited (Proteus mirabilis): above 0.1 mg/ml | Lowest concentration of azide in the tube that successfully separated the anaerobe [4]: 0.1 mg/mL | Lowest concentration of azide in the tube that successfully separated the anaerobe [5]: 0.1 mg/mL | Concentration of azide that inhibited growth in anoxic broth (Escherichia coli): ≤ 0.1 mg/mL | Lowest concentration of azide in the tube that successfully separated the anaerobe [6]: 0.2 mg/mL
